pIC50: −log10 of the molar value. “Also recorded” adds a separate entry of the source. Read-outs that look alike come from different tables or passages of the source.
Tests used:
[1] = Mouse plasma pharmacokinetics, PO 5 mg/kg; type: in vivo
Description: The following example describes the methods used to evaluate the pharmacokinetics of TYK2 inhibitors in vivo following dosing of a compound of the invention.
The pharmacokinetics of test compounds were evaluated in either male CD-1 mice or male C57BL/6 mice when administered by oral gavage and IV bolus injection. The animals were allowed free access to food and water before administration. The plasma samples were analyzed by LC-MS/MS and the concentration of test compound at each time point was determined by linear regression. Pharmacokinetic parameters were calculated from the plasma concentrations by non-compartmental modeling using WinNonlin 8.2.
Oral composition. To prepare a pharmaceutical composition for oral delivery, the test articles described herein were dissolved in DMSO and then mixed with necessary volume of PEG400 followed by […] in water or 50% Kolliphor HS 15 in saline to provide the final concentrations of 0.5 mg/mL or 1 mg/mL (Table 8). The resultant mixtures were suitable for oral administration.
The PK parameters measured in mouse plasma after treatment with TYK2 inhibitor compounds via PO (oral administration) at 5 mg/kg are summarized below in Tables 9-11.

[2] = tested on: IL-6 induced pSTAT3; test: IL-6 induced pSTAT3 assay in TF-1 cells; type: cell-based; conditions: Homo sapiens, read-out: Cellular selectivity (IL-6/pSTAT3)
Description: The following example describes the IL-6 induced pSTAT3 assay used to determine the cellular selectivity (IL-6/pSTAT3) of the TYK2 inhibitors.
TF-1 (ATCC®, CRL-2003™) cells were cultured in RPMI 1640 Medium, with GlutaMAX™ Supplement, HEPES for Cell Culture (Life Technologies, 72400047), 10% Fetal Bovine Serum (Life Technologies, 26400044), 2 ng/mL human recombinant GM-CSF (Life Technologies, PHC2013), 1 mM Sodium pyruvate (Life Technologies, 11360039), 1% MEM NEAA (Life Technologies, 11140-035), 1% Penicillin/Streptomycin (Life Technologies, 15140-122).
TF-1 (70×10^6) cells were starved overnight in T150 flasks (Opti-MEM™ I Reduced Serum Medium, no phenol red (Life Technologies, 11058-021), 1 mM Na pyruvate (Life Technologies, 11360039), 1% MEM NEAA (Life Technologies, 11140-035), and 1% Penicillin/Streptomycin (Life Technologies, 15140-122)) then seeded into 96-well TPP plates (150 000 cell/well) and incubated with test compounds (Final Concentration [nM]10000-0.05) for 30 minutes at 37° C. […] Stimulation was terminated by addition of lysis buffer (MSD K150SVD) and pSTAT3 detection was measured with Phospho-STAT3 (Tyr705) Kit MSD K150SVD)) according to manufacturer's instruction. Briefly, cell lysates were added to pre-blocked plates, sealed, and shake for 1 hour at room temperature. Plates were then washed and incubated with detection antibody for 1 hour at room temperature. After washing, Read Buffer was added, and plates were read on MSD instrument (Model 1300 MSD Quickplex SQ120).

[3] = target: T1, TYK2-JH2 (Homo sapiens, UniProt P29597); test: TYK2-JH2 HTRF binding assay (ligand efficiency); conditions: calculated from binding-assay IC50 (Equation 1)
T1 construct: TYK JH2 enzyme mix (ChemPartner: CP20210818A-BV); purchased ChemPartner CP20210818A-BV
T1 sequence (P29597 589-875 limits assumed): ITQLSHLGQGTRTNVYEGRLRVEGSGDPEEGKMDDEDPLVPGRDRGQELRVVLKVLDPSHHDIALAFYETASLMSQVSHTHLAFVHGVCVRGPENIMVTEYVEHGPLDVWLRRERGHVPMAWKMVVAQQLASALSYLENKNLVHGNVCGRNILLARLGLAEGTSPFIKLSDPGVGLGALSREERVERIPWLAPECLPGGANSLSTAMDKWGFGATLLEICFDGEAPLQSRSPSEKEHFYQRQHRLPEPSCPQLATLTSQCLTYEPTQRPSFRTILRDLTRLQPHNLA
Outline: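 HTRF competition binding: 0.5 nM His-tagged TYK2 JH2 preincubated 10 min at room temperature with compound (final 0.1 to 0.000005 μM), then 35 nM tracer and anti-6HIS Tb cryptate added for 60 min. Buffer 20 mM HEPES pH 7.5, 10 mM MgCl2, 0.01% Triton X-100, 1 mM DTT; TR-FRET Ex340/Em495/520. Ligand efficiency derived from binding IC50.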

[4] = Mouse colon distribution; type: in vivo; conditions: colon / plasma, read-out: Colon/Plasma Ratio at 12 h
[5] = GLP in vivo assay of genotoxicity

SMILES | Half-life (t1/2) [1] | Maximum plasma concentration (Cmax) [1] | Total systemic exposure (AUCinf) [1] | pIC50 [2] | Ligand Efficiency [3] | Kp at 12 h ([4]; PO 10 mg/kg) | Kp at 12 h ([4]; PO 50 mg/kg) | Kp at 12 h ([4]; PO 200 mg/kg) | genotoxicity [5] | genotoxicity ([5]; listed as compound 2)
C[C@@H](c1ccc(Nc2cc(Nc3ncccc3S(C)(=O)=O)ncn2)nc1)N1CC2(COC2)C1 [Compound 1, (S)—N^4-(5-(1-(2-oxa-6-azaspiro[3.3]heptan-6-yl)ethyl)pyridin-2-yl)-N^6-(3-(methylsulfonyl)pyridin-2-yl)pyrimidine-4,6-diamine] | †† (††: 1.0-1.5) | † (†: <800) | †† (††: 1000-2000) | < 5.00 | ††† (†††: >0.39) | 50 | 33 | 25 |  | 
C[C@@H](c1ccc(Nc2cc(Nc3ncc(F)cc3S(C)(=O)=O)ncn2)nc1)N1CC2(COC2)C1 [Compound 2, (S)—N^4-(5-(1-(2-oxa-6-azaspiro[3.3]heptan-6-yl)ethyl)pyridin-2-yl)-N^6-(5-fluoro-3-(methylsulfonyl)pyridin-2-yl)pyrimidine-4,6-diamine] | †† (††: 1.0-1.5) | ††† (†††: >1500) | ††† (†††: >2000) | < 5.00 | ††† (†††: >0.39) | 24 | 13 | 7.4 | substantially no genotoxicity; also recorded: virtually no genotoxicity | substantially non-genotoxic

— patent publication US20260048051A1, “TREATMENT OF INFLAMMATORY BOWEL DISEASE” (Atomwise Inc., priority 2024, published 2026)
